Key:
Format in all cases: in vivo
ApoE−/− mice [1] = test: OMBA, NBA and 1MT treating AngII-induced abdominal aortic aneurysm (Example 15); conditions: ApoE−/− mice; AngII 1,000 ng/kg/min four weeks, then drug in drinking water 6 weeks; mice with AAA/group size
Protocol: To test the effect of other Kynurenine pathway inhibitors on treating AngII-induced abdominal aortic aneurysm, male ApoE^−/− mice at age 8 weeks were infused with AngII (1,000 ng/kg/min) or saline (0.9% sodium chloride) by Alzet osmotic pumps for four weeks. Four weeks later, Ang-II treated mice were divided into […] groups of 18 and administered o-methoxybenzo ylalanine (OMB), (m-nitrobenzoyl)alanine (NBA), 1-methyltryptophan (1MT) or vehicle control (water) by drinking water for 6 weeks.
To quantify AAA incidence and size, the maximum width of abdominal aorta was measured with Image Pro Plus software (Media Cybernetics). Aneurysm incidence was quantified based on a definition of aneurysm as an external width of the suprarenal aorta that was increased by 50% or greater compared with aortas from saline-infused mice. The average diameter of the normal suprarenal aorta in control mice is 0.8 mm. Therefore, a threshold of 1.22 mm as evidence of aneurysm formation was set. […] Incidence of AAA among the various groups of mice is outlined in FIG. 31A and Table 5 below.

[2] = tested on: ApoE−/− and ApoE−/−/IDO−/− mice; test: AngII-induced AAA formation in ApoE−/− and ApoE−/−/IDO−/− mice; conditions: AngII 1000 ng/min/kg, 4 weeks
Excerpt: (§1) IDO^−/− and ApoE^−/− mice were obtained from Jackson laboratory (Bar Harbor, Maine) in a C57BL/6 background. IDO^−/− mice were crossed with ApoE^−/− mice to generate ApoE^−/−/IDO^−/− mice. Mice were housed in temperature-controlled cages under a 12-hour light/dark cycle and given free access to water and normal chow. All procedures involving animals were approved by the Institutional Animal Care and Use Committee at the University of Oklahoma Health Sciences Center. […] Circ Res. (2014) 114:480-92.
To quantify AAA incidence and size, the maximum width of abdominal aorta was measure with Image Pro Plus software (Media Cybernetics). We quantified aneurysm incidence based on a definition of aneurysm as an external width of the suprarenal aorta that was increased by 50% or greater compared with aortas from saline-infused mice, as described previously (Sparks A R, et al., Imaging of abdominal aortic aneurysms. Am Fam Physician. (2002) 65:1565-70). The average diameter of the normal suprarenal aorta in control mice is 0.8 mm. […]
AngII-induced mouse AAA formation in the atherosclerotic-susceptible strain (ApoE^−/−) has become the most widely used model. […] To unravel the role of the Trp-Kyn pathway in AAA formation ApoE^−/−/IDO^−/− (double-knockout) mice were generated and the outcome of a 4-week AngII infusion (1000 ng/min/kg) in ApoE^−/− and ApoE^−/−/IDO^−/− mice was determined. […]

[3] = tested on: ApoE−/− and ApoE−/−/IDO−/− mice; test: Serum cytokine in AngII-infused mice; conditions: 4 weeks, mean ± s.e.m.
Excerpt: as §1
AngII infusion is intensely associated with vascular inflammation, which is considered a key mediator of AngII-induced AAA formation. See Qin Z, et al., Angiotensin II-induced TLR4 mediated abdominal aortic aneurysm in apolipoprotein E knockout mice is dependent on STAT3. J Mol Cell Cardiol. (2015) 87:160-70; Owens A P, et al., MyD88 deficiency attenuates angiotensin II-induced abdominal aortic aneurysm formation independent of signaling through Toll-like receptors 2 and 4. Arterioscler Thromb Vasc Biol. (2011) 31:2813-9. […] Circ Res. (2014) 114:480-92. Similarly, an increase in IFN-γ expression was evident in the aortas of AngII-treated ApoE^−/− and ApoE^−/−/IDO^−/− mice. The consequent induction of IDO expression in the aortas of AngII-infused ApoE^−/− mice was also observed (FIGS. 2A, 2B, and 2E). […] This may be due to the high content of Trp in mouse diets.

ApoE−/− mice [4] = test: Acipimox preventing AngII-induced AAA in aged mice (Example 16); conditions: AngII 1,000 ng/kg/min four weeks
Protocol: To compare the effect of acipimox on treating AngII-induced abdominal aortic aneurysm in young (3 months old) or old (24 months old) mice, male ApoE^−/− mice in the aged mice group were treated with acipimox (0.1% wt) or vehicle control (water) by drinking water for 6 weeks. Four weeks later, mice in both age groups were infused with AngII (1,000 ng/kg/min) or saline (0.9% sodium chloride) by Alzet osmotic pumps for four weeks. AAA incidence and maximal abdominal aorta diameter were examined to evaluate the therapeutic effect of acipimox on AngII-induced AAA in old mice.
To quantify AAA incidence and size, the maximum width of abdominal aorta was measured with Image Pro Plus software (Media Cybernetics). Aneurysm incidence was quantified based on a definition of aneurysm as an external width of the suprarenal aorta that was increased by 50% or greater compared with aortas from saline-infused mice. The average diameter of the normal suprarenal aorta in control mice is 0.705 mm. Therefore, a threshold of 1.06 mm as evidence of aneurysm formation was set. […] After 4-weeks of AngII-infusion, mice where divided into two groups vehicle treated (n=10) or acipimox treated (n=15). Before treatment, the AAA incidence was 20% and 70% in young and old mice, respectively. After six weeks of treatment acipimox, AAA incidence decreased to 25% in the old mice group. […]

For “Angiotensin II (DRVYIHPF; Angiotensin-2; UniProt P01019 25-32, looked up) [AngII, Angiotensin II (Sigma, A9525) infused to induce AAA in mice]”, the “Incidence of AAA” value (ApoE−/− mice [1]) was 15/18, the “incidence of AngII-induced AAA” value ([2]; ApoE−/− mice) was 73% and the “incidence of AngII-induced AAA” value ([2]; ApoE−/−/IDO−/− mice) was 15%. For the same substance, the CyPA ([3]; Apoe−/− mice) was 771.8 ± 36.8 pM, the IFN-y ([3]; Apoe−/− mice) was 24.91 ± 1.75 pg/mL and the “IL -6” value ([3]; Apoe−/− mice) was 20.07 ± 3.25 pg/mL. The TNF - a ([3]; Apoe−/− mice) was 123.7 ± 18.2 pg/mL, the CyPA ([3]; Apoe−/−/IDO−/− mice) was 572.2 ± 42.7 pM and the IFN-y ([3]; Apoe−/−/IDO−/− mice) was 28.32 ± 2.73 pg/mL. For the same substance, the “IL -6” value ([3]; Apoe−/−/IDO−/− mice) was 22.25 ± 5.45 pg/mL, the TNF - a ([3]; Apoe−/−/IDO−/− mice) was 118.5 ± 16.1 pg/mL and the AAA incidence (ApoE−/− mice [4]; old (24 months old) ApoE−/− mice) was 70%. The AAA incidence (ApoE−/− mice [4]; young (3 months old) ApoE−/− mice) was 20%.

— patent US12280047B2, “Treatment of aneurysms” (Georgia State Research Foundation, Inc., priority 2017, dated 2025)
